# Results reported in patent publication US11179348B2, “Combination comprising pterostilbene for the treatment of cancer” (FUNDACIÓN UNIVERSIDAD CATÓLICA DE VALENCIA SAN VICENTE …, priority 2015, dated 2021).
# Test system: HepG2 cells isolated from tumor-bearing mice
# Test: Chemosensitization of cultured HepG2 cells isolated from xenografts
# Format: cell-based, human
# Conditions: 72 h-cultured, PL 0.2 μM, Chemo 0.15 μM DXR, Pter = in vivo pretreatment
# Experimental: FIGS. 18-25. Effect of piperlongumine and I-BET762, as GSH depleting and chemosensitizing agents, in in vitro growing human melanoma, pancreatic, breast, lung, liver, prostate, ovarian, and colorectal cancer cells. Cancer cells, isolated from Pter-treated tumor-bearing mice, were cultured as indicated under Methods. Chemotherapy (0.25 μM PAC.PBP in A2058 melanoma and MDA-MB-231 breast carcinoma cells; 0.125 μM PAC.PBP and 25 μM GTB in AsPC-1 pancreatic cancer cells; 1 μM VRB and 15 μM cisPt in A459 lung carcinoma cells; 0.15 μM DXR in HepG2 hepatocellular carcinoma cells; 15 nM DCT in PC-3 prostate carcinoma cells; 0.15 μM PAC.PBP and 25 μM CarboPt in SK-OV-3 ovarian carcinoma cells; 3 μM 5-FU, 1 μM FA and 0.6 μM IRI in HT-29 colorectal carcinoma cells) was added to the cultured flasks 24 h after seeding. […]
# Human A2058, MeWo and MelJuso melanoma cells, and mouse AtT-20 pituitary corticotroph tumor cells were from the American Type Culture Collection (ATCC). […] Cell numbers were determined using a Coulter Counter (Coulter Electronic Inc., Miami, Fla.). […] Cellular viability was assessed as previously reported (Mena, S. et al. Clin Cancer Res 13, 2658-2666 (2007)), by measuring trypan blue exclusion and leakage of lactate dehydrogenase activity. […]
compound,measurement,value
"COc1cc(/C=C/c2ccc(O)cc2)cc(OC)c1 [Pter, trans-3,5-dimethoxy-4′-hydroxystilbene]",Viable cells,1580 ± 318 ×10^6
